What all share (format): cell-based
Assay [1] relates to 3T3 cells. Kind of assay: MTT cell proliferation assay, 3T3 cells. The note with it: Mus musculus, NIH3T3; 3T3 fibroblast cells; incubation approximately 64-72 hours. On the procedure: (§1) The MTT cell proliferation assay was used to study the cytotoxic properties of the compounds. The assay was performed according to the method described by Roche Molecular Biochemicals, with minor modifications. The assay is based on the cleavage of the tetrazolium salt, MTT, in the presence of an electron-coupling reagent. The water-insoluble formazan salt produced must be solubilized in an additional step. Cells grown in a 96-well tissue culture plate were incubated with the MTT solution for approximately 4 hours. After this incubation period, a water-insoluble formazan dye formed. After solubilization, the formazan dye was quantitated using a scanning multi-well spectrophotometer (ELISA reader). […] The cells were seeded at 5,000-10,000 cells in each well of 96-well plate in 100 μL of fresh culture medium and were allowed to attach overnight. The stock solutions of the compounds were diluted in 100 μL cell culture medium to obtain eight concentrations of each test compound, ranging from 1 nM to 30 μM. […] All optical densities were measured at 490 nm using a Vmax Kinetic Microplate Reader (Molecular Devices). In most cases, the assay was performed in duplicate and the results were presented as a mean percent inhibition to the negative control±SE. The following formula was used to calculate the percent of inhibition. Inhibition (%)=(1−(ODo/OD))×100.
(§2) The compounds were tested against MS751, Z138 and 3T3 cells. The MS751 cell line is derived from a metastasis to lymph node of human cervix from a patient diagnosed with squameous cell carcinoma of the cervix. The […] cell line is a mature B-cell acute lymphoblastic leukemia cell line derived from a patient with chronic lymphocytic leukemia. 3T3 cells are standard fibroblast cells; they were originally isolated from Swiss mouse embryo tissue.
Background: Formazan colour is commonly taken as a measure of viable cells.

Assay [2] deals with MS751 cells. Kind of assay: MTT cell proliferation assay, MS751 cells. The note with it: Homo sapiens, incubation approximately 64-72 hours. On the procedure:
as §1, §2

The subject of assay [3] is Z138 cells. Put plainly: MTT cell proliferation assay, Z138 cells. Conditions: Homo sapiens, Z-138, incubation approximately 64-72 hours. On the procedure: as §1, §2

pIC50: −log10 of the molar value.

In the case of `Cc1cc(-c2ccc(OCCNC(=O)/C=C/c3ccc(N)nc3)c(Cl)c2)ccc1C(=O)N1CCOCC1` [Compound 314, (E)-3-(6-aminopyridin-3-yl)-N-(2-(3-chloro-3′-methyl-4′-(morpholine-4-carbonyl)biphenyl-4-yloxy)ethyl)acrylamide], the pIC50 – broadly, the IC50 on a negative log10 scale, so that one unit is a factor of ten – in assay [1] was 5.30 to 7.00; in assay [2], more than 7.00; in assay [3], more than 7.00.

For the compound `Nc1ccc(/C=C/C(=O)NCCOc2ccc(-c3ccc(C(=O)N4CC(F)(F)C4)cc3)cc2C(F)(F)F)cn1` [Compound 338, (E)-3-(6-aminopyridin-3-yl)-N-(2-(4′-(3,3-difluoroazetidine-1-carbonyl)-3-(trifluoromethyl)biphenyl-4-yloxy)ethyl)acrylamide], the pIC50 in assay [1], in assay [2] and in assay [3] was more than 7.00 each time.

Consider `Nc1ccc(/C=C/C(=O)NCCOc2ccc(-c3ccc(C(=O)N4CCOCC4)cc3)cc2C(F)(F)F)cn1` [Compound 339, (E)-3-(6-aminopyridin-3-yl)-N-(2-(4′-(morpholine-4-carbonyl)-3-(trifluoromethyl)biphenyl-4-yloxy)ethyl)acrylamide], for which the negative logarithm of the IC50 (pIC50) is 5.30 to 7.00 in assay [1], more than 7.00 in assay [2] and more than 7.00 in assay [3].

For `Nc1ccc(/C=C/C(=O)NCCOc2ccc(-c3ccc(C(=O)N4CCC(F)(F)CC4)cn3)cc2C(F)(F)F)cn1` [Compound 355, (E)-3-(6-aminopyridin-3-yl)-N-(2-(4-(5-(4,4-difluoropiperidine-1-carbonyl)pyridin-2-yl)-2-(trifluoromethyl)phenoxy)ethyl)acrylamide], the pIC50 was 5.30 to 7.00 in assay [1], more than 7.00 in assay [2] and more than 7.00 in assay [3].

In the case of `Nc1ccc(/C=C/C(=O)NCCS(=O)(=O)c2ccc(-c3ccc(C(=O)N4CC(F)(F)C4)cc3)cc2Cl)cn1` [Compound 337, (E)-3-(6-aminopyridin-3-yl)-N-(2-(3-chloro-4′-(3,3-difluoroazetidine-1-carbonyl)biphenyl-4-ylsulfonyl)ethyl)acrylamide], the negative logarithm of the IC50 (pIC50) in assay [1], in assay [2] and in assay [3] was less than 5.00 in each case.

Consider `Nc1ccc(/C=C/C(=O)NCCCOc2ccc(-c3ccc(C(=O)N4CCOCC4)cc3)cc2Cl)cn1` [Compound 348, (E)-3-(6-aminopyridin-3-yl)-N-(3-(3-chloro-4′-(morpholine-4-carbonyl)biphenyl-4-yloxy)propyl)acrylamide], for which the pIC50 is 5.30 to 7.00 in assay [1], more than 7.00 in assay [2] and more than 7.00 in assay [3].

In the case of `CC(C)(O)c1ccc(-c2ccc(OCCNC(=O)/C=C/c3cccnc3)c(Cl)c2)s1` [Compound 320, (E)-N-(2-(2-chloro-4-(5-(2-hydroxypropan-2-yl)thiophen-2-yl)phenoxy)ethyl)-3-(pyridin-3-yl)acrylamide], the pIC50 in assay [1] was 5.00 to 5.30; in assay [2] it was 5.30 to 7.00; in assay [3], 5.30 to 7.00.

As to `[2H]C([2H])(CNC(=O)/C=C/c1ccc(N)nc1)Oc1ccc(F)c(-c2ccc(C(=O)N3CCOCC3)cc2)c1` [Compound 343, (E)-3-(6-aminopyridin-3-yl)-N-(2,2-dideutero-2-(6-fluoro-4′-(morpholine-4-carbonyl)biphenyl-3-yloxy)ethyl)acrylamide], the pIC50 in assay [1] is less than 5.00; in assay [2] it was 5.30 to 7.00; in assay [3], 5.30 to 7.00.

Turning to `CC(C)(CNC(=O)/C=C/c1ccc(N)nc1)Oc1ccc(-c2ccc(C(=O)N3CC(F)(F)C3)cc2)cc1Cl` [Compound 333, (E)-3-(6-aminopyridin-3-yl)-N-(2-(3-chloro-4′-(3,3-difluoroazetidine-1-carbonyl)biphenyl-4-yloxy)-2-methylpropyl)acrylamide], the pIC50 was less than 5.00 in assay [1], 5.30 to 7.00 in assay [2] and 5.30 to 7.00 in assay [3].

As for `[2H]C([2H])(CNC(=O)/C=C/c1ccc(N)nc1)Oc1ccc(-c2ccc(C(=O)N3CCOCC3)cc2)cc1Cl` [Compound 342, (E)-3-(6-aminopyridin-3-yl)-N-(2,2-dideutero-2-(3-chloro-4′-(morpholine-4-carbonyl)biphenyl-4-yloxy)ethyl)acrylamide], the pIC50 in assay [1] is 5.30 to 7.00; in assay [2] it was more than 7.00; in assay [3], more than 7.00.

Regarding `CC(=O)c1ccc(-c2ccc(OCCNC(=O)C#Cc3cccnc3)c(Cl)c2)s1` [Compound 309, N-(2-(4-(5-acetylthiophen-2-yl)-2-chlorophenoxy)ethyl)-3-(pyridin-3-yl)propiolamide], the pIC50 in assay [1], in assay [2] and in assay [3] was less than 5.00 each time.

As to `CC(=O)c1ccc(-c2ccc(OCCNC(=O)/C=C/c3c(C)noc3C)c(Cl)c2)s1` [Compound 307, (E)-N-(2-(4-(5-acetylthiophen-2-yl)-2-chlorophenoxy)ethyl)-3-(3,5-dimethylisoxazol-4-yl)acrylamide], the negative logarithm of the IC50 (pIC50) in assay [1], in assay [2] and in assay [3] was less than 5.00 throughout.

For `Nc1ccc(/C=C/C(=O)NCCCOc2ccc(-c3ccc(C(=O)N4CC(F)(F)C4)cc3)cc2Cl)cn1` [Compound 336, (E)-3-(6-aminopyridin-3-yl)-N-(3-(3-chloro-4′-(3,3-difluoroazetidine-1-carbonyl)biphenyl-4-yloxy)propyl)acrylamide], the pIC50 in assay [1] was 5.30 to 7.00; in assay [2] it was more than 7.00; in assay [3], more than 7.00.

On to `Nc1ccc(/C=C/C(=O)NCCOc2ccc(-c3nnc(C(=O)N4CCOCC4)o3)cc2Cl)cn1` [Compound 351, (E)-3-(6-aminopyridin-3-yl)-N-(2-(2-chloro-4-(5-(morpholine-4-carbonyl)-1,3,4-oxadiazol-2-yl)phenoxy)ethyl)acrylamide], for which the pIC50 was less than 5.00 in assay [1], 5.30 to 7.00 in assay [2] and 5.30 to 7.00 in assay [3].

`CC1(C)COCCN1C(=O)c1ccc(-c2ccc(OCCNC(=O)/C=C/c3ccc(N)nc3)c(Cl)c2)cc1` [Compound 335, (E)-3-(6-aminopyridin-3-yl)-N-(2-(3-chloro-4′-(3,3-dimethylmorpholine-4-carbonyl)biphenyl-4-yloxy)ethyl)acrylamide]: the pIC50 in assay [1] is 5.30 to 7.00; in assay [2] it was more than 7.00; in assay [3] it was more than 7.00.

`CC(CCOc1cc(-c2ccc(C(=O)N3CCC(F)(F)CC3)cn2)cc(C(F)(F)F)c1)NC(=O)/C=C/c1ccc(N)nc1` (stereo not drawn) [Compound 352, (E)-3-(6-aminopyridin-3-yl)-N-(4-(3-(5-(4,4-difluoropiperidine-1-carbonyl)pyridin-2-yl)-5-(trifluoromethyl)phenoxy)butan-2-yl)acrylamide]: the pIC50 in assay [1] was less than 5.00; in assay [2], 5.30 to 7.00; in assay [3], 5.30 to 7.00.

Take `Nc1ccc(/C=C/C(=O)NCCOc2ccc(-c3ccc(C(=O)N4CCNCC4)cc3)cc2Cl)cn1` [Compound 326, (E)-3-(6-aminopyridin-3-yl)-N-(2-(3-chloro-4′-(piperazine-1-carbonyl)biphenyl-4-yloxy)ethyl)acrylamide]: the negative logarithm of the IC50 (pIC50) in assay [1] is 5.30 to 7.00; in assay [2], more than 7.00; in assay [3], more than 7.00.

As to `CC(C)(CNC(=O)/C=C/c1ccc(N)nc1)Oc1ccc(F)c(-c2ccc(C(=O)N3CCOCC3)cc2)c1` [Compound 340, (E)-3-(6-aminopyridin-3-yl)-N-(2-(6-fluoro-4′-(morpholine-4-carbonyl)biphenyl-3-yloxy)-2-methylpropyl)acrylamide], the pIC50 in assay [1] was less than 5.00; in assay [2] it was 5.30 to 7.00; in assay [3] it was more than 7.00.

Regarding `CC(=O)c1ccc(-c2ccc(NCCNC(=O)/C=C/c3cccnc3)c(Cl)c2)s1` [Compound 322, (E)-N-(2-(4-(5-acetylthiophen-2-yl)-2-chlorophenylamino)ethyl)-3-(pyridin-3-yl)acrylamide], the pIC50 was less than 5.00 in assay [1], 5.30 to 7.00 in assay [2] and 5.30 to 7.00 in assay [3].

Take `Nc1ccc(/C=C/C(=O)NCCOc2ccc(-c3ccc(C(=O)N4CCOCC4)cc3)cc2Cl)cn1` [Compound 316, (E)-3-(6-aminopyridin-3-yl)-N-(2-(3-chloro-4′-(morpholine-4-carbonyl)biphenyl-4-yloxy)ethyl)acrylamide]: the pIC50 in assay [1] was 5.30 to 7.00; in assay [2], more than 7.00; in assay [3], more than 7.00.

On to `CN(C)C(=O)c1ccc(-c2ccc(OCCNC(=O)/C=C/c3ccc(N)nc3)c(Cl)c2)cc1` [Compound 325, (E)-4′-(2-(3-(6-aminopyridin-3-yl)acrylamido)ethoxy)-3′-chloro-N,N-dimethylbiphenyl-4-carboxamide], for which the figures for the pIC50 in assay [1], in assay [2] and in assay [3] were less than 5.00, 5.30 to 7.00 and 5.30 to 7.00, respectively.

On to `CN1CCN(C(=O)c2ccc(-c3ccc(OCCNC(=O)/C=C/c4ccc(N)nc4)c(Cl)c3)cc2)CC1` [Compound 313, (E)-3-(6-aminopyridin-3-yl)-N-(2-(3-chloro-4′-(4-methylpiperazine-1-carbonyl)biphenyl-4-yloxy)ethyl)acrylamide], for which the pIC50 in assay [1] was 5.30 to 7.00; in assay [2], more than 7.00; in assay [3] it was more than 7.00.
